Assay results as given in patent publication US11353463B2, “Redox-based reagents for methionine bioconjugation” (The Regents of the University of California, priority 2016, dated 2022).

What was measured:
[1] = molecular target: bovine serum albumin (BSA) (Bos taurus, UniProt P02769); assay: ReACT labeling of BSA, CuAAC with Cy3-azide, in-gel fluorescence imaging
Experimental: FIG. 1A Left panel: Acid-base conjugation strategies for cysteine-based protein functionalization; Right panel: Redox-Activated Chemical Tagging (ReACT) strategies for methionine-based protein functionalization. Oxaziridine (Ox) compounds serve as oxidant-sulfimide conjugation product. (B) Model redox conjugation reaction with 25 μM of N-acetyl-L-methionine methyl ester (Si) and 27.5 μM of various oxaziridine compounds as substrates in co-solvent. (C) Number of unique redox conjugation carrying peptide on representative amino acid, namely Met, Lys and Cys by labeling HeLa cell lysate with Ox4 at the final concentration of 1 mM for 10 min. (D) Yield of conjugation reaction was performed with 15 μM of BSA carrying 4 methionine per protein and 100 μM Ox4 at indicated time point as measured by in-gel fluorescence imaging.
ReACT as a method for site-selective methionine conjugation of proteins was evaluated. […] The resulting redox conjugation yield to BSA was analyzed by in-gel fluorescence imaging. […] The reactivity of various alkyne- and azide-containing oxaziridine probes with CaM model protein was assessed (FIG. 2B). […]

[2] = Stability of redox conjugation product sulfimide (NMR); format: physicochemical; conditions: salt form under strong acidic condition
Experimental: The reactivity of oxaziridine probes with other biologically relevant amino acid competitors was evaluated. […] HeLa cell lysates were treated with Ox4, trypsin digested, and then analyzed by LC-MS/MS for probe modification on all nucleophilic amino acids using the X!Tandem program^43. […] Finally, the chemical stability of the sulfimide methionine conjugation product was tested, finding that this linkage is resistant to acidic and basic conditions, elevated temperature, as well as treatment with a strong protein disulfide reducing agent such as tris(2-carboxyethyl)phophine (TCEP).
The stability of sulfimides were tested by treatment of sulfimides S2 with 5 mM TCEP or treatment of sulfimides S3 with 1 N HC1, 1 N NaOH or 80° C. in co-solvent (d-MeOD/D2O=1:1). The reactions were monitored by NMR after 1 h and 18 h and the reaction conversions were calculated based on NMR data.

bovine serum albumin (BSA), sequence (P02769 25-607): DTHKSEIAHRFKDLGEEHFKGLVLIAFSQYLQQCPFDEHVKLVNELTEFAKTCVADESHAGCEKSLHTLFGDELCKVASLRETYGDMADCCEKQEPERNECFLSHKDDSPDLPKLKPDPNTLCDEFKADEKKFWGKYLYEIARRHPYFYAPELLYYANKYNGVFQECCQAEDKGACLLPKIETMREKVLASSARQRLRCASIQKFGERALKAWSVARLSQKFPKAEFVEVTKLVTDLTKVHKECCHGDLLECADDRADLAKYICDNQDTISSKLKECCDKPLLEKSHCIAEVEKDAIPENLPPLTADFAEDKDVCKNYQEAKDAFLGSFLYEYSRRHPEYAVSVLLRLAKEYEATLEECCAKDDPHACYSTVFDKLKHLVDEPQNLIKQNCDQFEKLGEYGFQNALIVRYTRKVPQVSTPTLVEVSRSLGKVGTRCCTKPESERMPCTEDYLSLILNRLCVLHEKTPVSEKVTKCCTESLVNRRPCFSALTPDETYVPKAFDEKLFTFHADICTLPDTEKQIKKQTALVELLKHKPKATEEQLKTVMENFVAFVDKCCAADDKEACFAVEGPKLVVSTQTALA

Q: With `C#CCNC(=O)N1OC1c1ccccc1` (stereo not drawn) [Ox4, 3-Phenyl-N-(prop-2-yn-1-yl)-1,2-oxaziridine-2-carboxamide] as the molecule, how does the “redox conjugation yield to BSA” value ([1]; within 1-2 min, 15 μM BSA, 100 μM Ox4) read?
A: The value was greater than 95%.

Q: And the “labeling of BSA” value ([1]; within the first 5 s following addition of Ox4)?
A: Its value is 50%.

Q: For `CCNC(=O)N[S+](C)c1ccccc1.[Cl-]` (stereo not drawn) [Ox S4], which “stability in aqueous solution” value [2] is on record?
A: The value was “stable in aqueous solution”.
